In ChEMBL document CHEMBL1143910, “Synthesis of guanidino analogues of PMPDAP and their immunobiological activity” (Bioorg Med Chem, 2008):
Active and inactive are the calls of the source. No cut-off for these calls is given here.

Key:
L929 = experiment: Cytotoxicity against mouse L929 cells; assay type: cell-based
[1] = Cytotoxicity against human HeLaS3 cells; assay type: cell-based; details: hela s3
Maize streak virus = experiment: Antiviral activity against MSV; assay type: functional
[2] = tested on: Human immunodeficiency virus 2; experiment: Antiviral activity against HIV2; assay type: functional, organism-based
Macrophage [3] = experiment: Increase in IFN-gamma stimulated nitric oxide production in C57BL/6 mouse peritoneal macrophages at 100 uM after 24 hrs; assay type: functional, cell-based
[4] = tested on: Human immunodeficiency virus 1; experiment: Antiviral activity against HIV1; assay type: functional, organism-based
L1210 = experiment: Cytotoxicity against mouse L1210 cells; assay type: cell-based
PBMC [5] = experiment: Activation of RANTES secretion in human PBMC at 50 uM after 16 hrs by ELISA; assay type: functional, cell-based
[6] = Activation of TNFalpha secretion in C57BL/6 mouse peritoneal macrophages at 100 uM after 16 hrs by ELISA; assay type: functional, cell-based; details: Macrophage
Macrophage [7] = experiment: Activation of RANTES secretion in C57BL/6 mouse peritoneal macrophages at 100 uM after 16 hrs by ELISA; assay type: functional, cell-based
Macrophage [8] = experiment: Increase in IFN-gamma stimulated nitric oxide production in C57BL/6 mouse peritoneal macrophages at 10 to 25 uM after 24 hrs; assay type: functional, cell-based
Macrophage [9] = experiment: Activation of MIP1-alpha secretion in C57BL/6 mouse peritoneal macrophages at 100 uM after 16 hrs by ELISA; assay type: functional, cell-based
PBMC [10] = experiment: Activation of MIP1-alpha secretion in human PBMC at 50 uM after 16 hrs by ELISA; assay type: functional, cell-based

SMILES | Activity (L929) | Activity [1] | Activity (Maize streak virus) | Activity [2] | Activity (Macrophage [3]) | Activity [4] | Activity (L1210) | Activity (PBMC [5]) | Activity [6] | Activity (Macrophage [7]) | Activity (Macrophage [8]) | Activity (Macrophage [9]) | Activity (PBMC [10])
C[C@@H](Cn1cnc2nc(N)nc(N=C(N)N)c21)OCP(=O)(O)O | Not Active | Not Active | inactive | inactive | Active | inactive | Not Active |  |  |  |  |  | 
C[C@H](Cn1cnc2ncnc(N=C(N)N)c21)OCP(=O)(O)O | Not Active | Not Active | inactive | inactive | inactive | inactive | Not Active |  |  |  |  |  | 
C[C@H](Cn1cnc2c(N=C(N)N)nc(N)nc21)OCP(=O)(O)O | Not Active | Not Active | inactive | inactive | Active | inactive | Not Active | Active | Active | Active | Active | Active | Active
C[C@H](Cn1cnc2c(N)nc(N=C(N)N)nc21)OCP(=O)(O)O | Not Active | Not Active | inactive | inactive | inactive | inactive | Not Active |  |  |  |  |  | 
C[C@@H](Cn1cnc2c(N=C(N)N)ncnc21)OCP(=O)(O)O | Not Active | Not Active | inactive | inactive | inactive | inactive | Not Active |  |  |  |  |  | 
C[C@@H](Cn1cnc2nc(N=C(N)N)ncc21)OCP(=O)(O)O | Not Active | Not Active | inactive | inactive | inactive | inactive | Not Active |  |  |  |  |  | 
C[C@H](Cn1cnc2nc(N)nc(N=C(N)N)c21)OCP(=O)(O)O | Not Active | Not Active | inactive | inactive | Active | inactive | Not Active |  |  |  |  |  | 
C[C@H](Cn1c(N=C(N)N)nc(N)c2ncnc1-2)OCP(=O)(O)O | Not Active | Not Active | inactive | inactive | Active | inactive | Not Active |  |  |  |  |  | 
C[C@@H](Cn1cnc2cnc(N=C(N)N)nc21)OCP(=O)(O)O | Not Active | Not Active | inactive | inactive | inactive | inactive | Not Active |  |  |  |  |  | 
C[C@@H](Cn1cnc2ncnc(N=C(N)N)c21)OCP(=O)(O)O | Not Active | Not Active | inactive | inactive | inactive | inactive | Not Active |  |  |  |  |  | 
C[C@H](Cn1cnc2c(N=C(N)N)ncnc21)OCP(=O)(O)O | Not Active | Not Active | inactive | inactive | inactive | inactive | Not Active |  |  |  |  |  | 
C[C@H](Cn1cnc2nc(N=C(N)N)ncc21)OCP(=O)(O)O | Not Active | Not Active | inactive | inactive | inactive | inactive | Not Active |  |  |  |  |  | 
C[C@@H](Cn1cnc2c(N)nc(N=C(N)N)nc21)OCP(=O)(O)O | Not Active | Not Active | inactive | inactive | inactive | inactive | Not Active |  |  |  |  |  | 
C[C@@H](Cn1cnc2c(N=C(N)N)nc(N)nc21)OCP(=O)(O)O | Not Active | Not Active | inactive | inactive | Active | inactive | Not Active |  |  |  |  |  | 
C[C@@H](Cn1c(N=C(N)N)nc(N)c2ncnc1-2)OCP(=O)(O)O | Not Active | Not Active | inactive | inactive | Active | inactive | Not Active | Active | Active | Active | Active | Active | Active
C[C@H](Cn1cnc2cnc(N=C(N)N)nc21)OCP(=O)(O)O | Not Active | Not Active | inactive | inactive | inactive | inactive | Not Active |  |  |  |  |  | 
